≈ marks a conversion by molar mass, not a printed value. Where “and” joins values, the source holds several entries; their conditions need not be identical. Identical values can stand only once. Entries after “also recorded” stand apart in the source; their conditions may differ. Like-named read-outs stand apart in the source and are kept apart here.
Key:
[1] = test system: Plasmodium falciparum 3D7 strain; assay: antiplasmodial interaction assay, fixed-ratio combination isobologram method with artemisinin; assay type: cell-based; conditions: for Mean ƩFIC ± SD: combination with artemisinin, over the fixed-ratio combinations; for antiplasmodial interaction with artemisinin (in words): four fixed-ratio combinations, in vitro; for Drug B Mean FIC50 ± SE: n = 3
Experimental: Stock culture of malaria parasite P. falciparum 3D7 strain (chloroquine sensitive) was continuously maintained in vitro using a CO2 incubator under low-oxygen concentration (3%) and high carbon dioxide atmosphere (4%) along with nitrogen (93%), incubated at a temperature of 37°C. The parasites were maintained on O^+ human red blood cells suspended in a complete culture medium. Each litre of RPMI-1640 aqueous culture medium was prepared with 10.4 g of powdered RPMI-1640 (with glutamine but without sodium bicarbonate), 5.94 g of HEPES buffer, 1 g of dextrose and 40 mg of gentamicin. Complete medium was constituted just before use by adding sterile 5% sodium bicarbonate at the rate of 4 ml per 96 ml, and supplemented with 10% (v/v) pooled O^+ human serum. Infected erythrocytes were suspended in this culture media initiated at a haematocrit value of 5% and parasitemia was kept between 2 and 4% with sub-culturing done beyond 5%. Medium was changed once a day and percentage parasitemia was monitored using Giemsa stained slides.
Artemisinin (Sigma Aldrich, USA) was prepared in DMSO to get the stock solution of 1 mg/ml strength. Compounds 10, 12 and 18 were synthesized according to the procedure described by Dixit et al. and each compound was made to strength of 1 mg/ml stock solution in DMSO. The stock solutions were diluted on the day of experiment to get the desired concentrations for each compound. The highest amount of DMSO in diluted concentrations was 0.125%, and had no effect on parasite growth.
In each combination assay, two compounds (Compound A, artemisinin and Compound B, a fluoroquinolone derivative or norfloxacin) were combined in four fixed ratios (4:1, 3:2, 2:3, and 1:4).
Compound dilutions of each combination solution were made in sterile, flat-bottomed, 96-well tissue culture plates as described by Fivelman et al.. Six times two-fold serial dilution was done for each combination in triplicate. Each well contained a total volume of 200 μl of complete culture medium with or without compound and pre-synchronized infected red blood cells (1% parasitemia at 2.5% haematocrit). Control cultures (without compound) were maintained on the same plate in triplicate. Two 96-well plates (for six combinations) were used for each combination experiment. The plates were stacked in a CO2 incubator and incubated at 37°C for 48 hours.
After 48-hour incubation, thin blood smear slides were prepared, air dried, methanol fixed, and stained in Giemsa solution for 40 min. After staining, slides were removed from coupling jar, washed in running tap water and air dried. The Giemsa-stained slides were examined for counting the number of parasites in random adjacent microscopic fields, equivalent to about 4,000 erythrocytes at 1,000 × magnification. Per cent parasitemia was calculated. Reproducibility of counts was checked by two other readers to maintain the quality control.
For each combination assay, IC50 was calculated from two sets of concentration response graphs, each containing compound alone curve and four combination curves.
ƩFIC <1 represents synergism, ƩFIC > = 1 and <2 represents additive interaction, ƩFIC > = 2 and <4 represents slight antagonism while ƩFIC > = 4 represents marked antagonism.

[2] = test system: Plasmodium berghei ANKA; assay: Peters' four-day suppressive test in BALB/c mice; assay type: in vivo; conditions: ip, once daily days 0 to 3, BALB/c mice; n = 5
Source text: Evaluation of the curative potential of the fluoroquinolone derivatives was done using the method described by Ryley and Peters, 1970 (rodent malaria four-day suppressive test; Peters’ four-day suppressive test). Rodent malaria parasite Plasmodium berghei ANKA was used.
[…] BALB/c inbred albino mice (25–30 g) of the male sex were obtained from the Animal Facility Centre of the Department of Zoology, University of Delhi. The animals were fed ad libitum with standard feed and had free access to water. They were maintained under standard conditions of humidity, temperature (25°C) and 12 hours light/darkness cycles. The animals were acclimatized for two weeks before the commencement of the study and were ensured to exclude all zoonotic agents.
Day 0: Heparinized blood was withdrawn from an infected donor mouse with approximately 25-30% parasitemia, and diluted in 1x PBS to 10^8 parasitized erythrocytes per mL. An aliquot of 0.2 mL (=2 × 10^7 parasitized erythrocytes) of this suspension was injected intraperitoneally (ip) into experimental groups of five mice each. One to three hours post-infection, the experimental groups were treated with varying doses of each of the test compounds (0.5, 1, 10, 25 mg/kg BW) by the ip route. Each compound was made to strength of 5 mg/ml stock solution in 10% DMSO and administered according to desired concentration and individual body weight. Artemisinin was given to the standard drug group and 0.2 mL of normal saline to the negative control group.
Day 1, 2 and 3: 24 hours, 48 hours and 72 hours post-infection, the experimental groups of mice were treated again with the same dose and by the same route as on day 0.
Day 4: 24 hours after the last treatment (i.e., 96 hours post-infection), blood was drawn from the tail region of mice and smears were prepared. […] Differences in parasitemia percentage between treated groups and untreated animals were analysed by a one-way ANOVA test using IBM SPSS Statistics 16.0 and differences considered significant if P < 0.05. […] Percentinhibitionactivity=100–Meanparasitemia/control×100
Untreated control mice typically died approximately one week after infection. […] The mean survival time was calculated in comparison to untreated (Normal saline) and standard drug (artemisinin) treated groups. Differences in survival time between treated groups and untreated animals were analysed by Log-rank (Mantel-Cox) test using GraphPad Prism 5 and differences considered significant if P <0.005. Observations concerning adverse effects due to the compounds were recorded.

[3] = test system: host cell; set-up: method as in PMID 22424611; conditions: read-out: in vitro host cell cytotoxicity IC50; cited from earlier work
[4] = test system: 3D7 strain of P. falciparum; conditions: cited from earlier work
[5] = test system: BALB/c mice; assay: LD50 test; assay type: in vivo; conditions: ip
Experimental: Therapeutic Index (TI) values were determined by the formula: TherapeuticIndexTI=MedianlethaldoseLD50/MedianeffectivedoseED50

[6] = artemisinin (A) : drug B ratio 1:4
[7] = artemisinin (A) : drug B ratio 2:3
[8] = artemisinin (A) : drug B ratio 3:2
[9] = artemisinin (A) : drug B ratio 4:1
[10] = ratio A:B 1:4, combined with artemisinin (drug A)
[11] = ratio A:B 2:3, combined with artemisinin (drug A)
[12] = ratio A:B 3:2, combined with artemisinin (drug A)
[13] = ratio A:B 4:1, combined with artemisinin (drug A)
[14] = P. falciparum 3D7, in vitro, read-out: IC50 (equivalent in μM)
[15] = fluoroquinolones in clinical use, reported values, read-out: reported IC50 against 3D7 strain of P. falciparum in vitro

Structure (SMILES): CCOC(=O)c1cn(CC#N)c2cc(Cl)c(F)cc2c1=O [Compound 10]
- interaction (class from Σ FICs) [1, 6]: SYN (ƩFIC <1 represents synergism)
- Σ FICs [1, 6]: 0.58
- interaction (class from Σ FICs) [1, 7]: ADD (ƩFIC > = 1 and <2 represents additive interaction)
- Σ FICs [1, 7]: 1.01
- interaction (class from Σ FICs) [1, 8]: SYN (ƩFIC <1 represents synergism)
- Σ FICs [1, 8]: 0.80
- interaction (class from Σ FICs) [1, 9]: SYN (ƩFIC <1 represents synergism)
- Σ FICs [1, 9]: 0.76
- Mean ƩFIC ± SD [1]: 0.788 ± 0.177
- antiplasmodial interaction with artemisinin (in words) [1]: highly synergistic interactions; also recorded: synergistic antiplasmodial interaction in three of the four fixed-ratio combinations evaluated and additive in the remaining one
- Drug B Mean FIC50 ± SE ([1]; ratio A:B 0:5, drug B alone): 0.93 ± 0.04
- Drug B Mean FIC50 ± SE [1, 10]: 0.41 ± 0.03
- Drug B Mean FIC50 ± SE [1, 11]: 0.53 ± 0.03
- Drug B Mean FIC50 ± SE [1, 12]: 0.22 ± 0.02
- Drug B Mean FIC50 ± SE [1, 13]: 0.15 ± 0.02
- Mean ED50 ± SE [2]: 2.31 mg/kg BW and 2.31 ± 0.19 mg/kg BW
- IC50 [3]: 143 µM
- IC50 (inhibited the parasite multiplication rate to 50%) ± SE ([4]; P. falciparum 3D7, in vitro): 2.56 ± 0.30 µg/mL (≈ 8.29 µM)
- IC50 [4, 14]: 8.69 µM
- Therapeutic Index (TI) = LD50/ED50 [5]: 346.32

Structure (SMILES): CCOC(=O)c1cn(Cc2c[nH]nn2)c2cc(Cl)c(F)cc2c1=O [Compound 12]
- interaction (class from Σ FICs) [1, 6]: SYN (ƩFIC <1 represents synergism)
- Σ FICs [1, 6]: 0.56
- interaction (class from Σ FICs) [1, 7]: ADD (ƩFIC > = 1 and <2 represents additive interaction)
- Σ FICs [1, 7]: 1.27
- interaction (class from Σ FICs) [1, 8]: SYN (ƩFIC <1 represents synergism)
- Σ FICs [1, 8]: 0.83
- interaction (class from Σ FICs) [1, 9]: SYN (ƩFIC <1 represents synergism)
- Σ FICs [1, 9]: 0.78
- antiplasmodial interaction with artemisinin (in words) [1]: highly synergistic interactions
- antiplasmodial interaction with artemisinin (in words) ([1]; listed as compound 12): synergistic interaction in three combinations and additive in one
- Drug B Mean FIC50 ± SE ([1]; ratio A:B 0:5, drug B alone): 1.11 ± 0.08
- Drug B Mean FIC50 ± SE [1, 10]: 0.32 ± 0.01
- Drug B Mean FIC50 ± SE [1, 11]: 0.77 ± 0.03
- Drug B Mean FIC50 ± SE [1, 12]: 0.23 ± 0.02
- Drug B Mean FIC50 ± SE [1, 13]: 0.15 ± 0.003
- Mean ED50 ± SE [2]: 3.09 mg/kg BW and 3.09 ± 0.22 mg/kg BW
- IC50 [3]: 171 µM
- IC50 (inhibited the parasite multiplication rate to 50%) ± SE ([4]; P. falciparum 3D7, in vitro): 1.33 ± 0.67 µg/mL (≈ 3.79 µM)
- IC50 [4, 14]: 3.79 µM
- Therapeutic Index (TI) = LD50/ED50 [5]: 258.90

Structure (SMILES): CCOC(=O)c1cn(Cc2cccc(Cl)c2)c2cc(Cl)c(F)cc2c1=O [Compound 18]
- interaction (class from Σ FICs) [1, 6]: SYN (ƩFIC <1 represents synergism)
- Σ FICs [1, 6]: 0.55
- interaction (class from Σ FICs) [1, 7]: ADD (ƩFIC > = 1 and <2 represents additive interaction)
- Σ FICs [1, 7]: 1.15
- interaction (class from Σ FICs) [1, 8]: ADD (ƩFIC > = 1 and <2 represents additive interaction)
- Σ FICs [1, 8]: 1.02
- interaction (class from Σ FICs) [1, 9]: SYN (ƩFIC <1 represents synergism)
- Σ FICs [1, 9]: 0.73
- antiplasmodial interaction with artemisinin (in words) [1]: synergistic in two combinations, while additive in the other two
- Drug B Mean FIC50 ± SE ([1]; ratio A:B 0:5, drug B alone): 0.97 ± 0.08
- Drug B Mean FIC50 ± SE [1, 10]: 0.33 ± 0.02
- Drug B Mean FIC50 ± SE [1, 11]: 0.66 ± 0.03
- Drug B Mean FIC50 ± SE [1, 12]: 0.47 ± 0.03
- Drug B Mean FIC50 ± SE [1, 13]: 0.16 ± 0.01
- Mean ED50 ± SE [2]: 2.60 mg/kg BW and 2.60 ± 0.18 mg/kg BW
- IC50 [3]: 129 µM
- IC50 (inhibited the parasite multiplication rate to 50%) ± SE ([4]; P. falciparum 3D7, in vitro): 2.73 ± 0.23 µg/mL (≈ 6.92 µM)
- IC50 [4, 14]: 6.93 µM
- Therapeutic Index (TI) = LD50/ED50 [5]: 307.69

Structure (SMILES): CCn1cc(C(=O)O)c(=O)c2cc(F)c(N3CCNCC3)cc21 [Norfloxacin, norfloxacin, reference compound]
- interaction (class from Σ FICs) [1, 6]: SYN (ƩFIC <1 represents synergism)
- Σ FICs [1, 6]: 0.74
- interaction (class from Σ FICs) [1, 7]: ADD (ƩFIC > = 1 and <2 represents additive interaction)
- Σ FICs [1, 7]: 1.53
- interaction (class from Σ FICs) [1, 8]: SYN (ƩFIC <1 represents synergism)
- Σ FICs [1, 8]: 0.81
- interaction (class from Σ FICs) [1, 9]: ADD (ƩFIC > = 1 and <2 represents additive interaction)
- Σ FICs [1, 9]: 1.36
- Mean ƩFIC ± SD [1]: 1.11 ± 0.394
- antiplasmodial interaction with artemisinin (in words) [1]: synergistic interaction in two combinations, while additive in the remaining two
- Drug B Mean FIC50 ± SE ([1]; ratio A:B 0:5, drug B alone): 0.98 ± 0.04
- Drug B Mean FIC50 ± SE [1, 10]: 0.60 ± 0.02
- Drug B Mean FIC50 ± SE [1, 11]: 0.87 ± 0.03
- Drug B Mean FIC50 ± SE [1, 12]: 0.52 ± 0.04
- Drug B Mean FIC50 ± SE [1, 13]: 0.45 ± 0.02
- IC50 [4, 15]: 53.9 µM

Structure (SMILES): NC1CCN(c2c(F)cc3c(=O)c(C(=O)O)cn(C4CC4)c3c2Cl)C1 (stereo not drawn) [clinafloxacin, reference compound]
- IC50 [4, 15]: 37.5 µM

Structure (SMILES): CCn1cc(C(=O)O)c(=O)c2cc(F)c(N3CCNCC3)nc21 [enoxacin, reference compound]
- IC50 [4, 15]: 121 µM

Structure (SMILES): CC1COc2c(N3CCN(C)CC3)c(F)cc3c(=O)c(C(=O)O)cn1c23 (stereo not drawn) [ofloxacin, reference compound]
- IC50 [4, 15]: 152 µM

Reference: PMC4349624, “In vitro synergistic effect of fluoroquinolone analogues in combination with artemisinin against Plasmodium falciparum; their antiplasmodial action in rodent malaria model” (Malaria Journal, 2015)
